In one test the target is T1, human CRF2α receptor (Homo sapiens, UniProt Q13324).
T1 construct: expressed in transfected cells; host or cells: TeloHEAC
T1 sequence (Q13324 1-411): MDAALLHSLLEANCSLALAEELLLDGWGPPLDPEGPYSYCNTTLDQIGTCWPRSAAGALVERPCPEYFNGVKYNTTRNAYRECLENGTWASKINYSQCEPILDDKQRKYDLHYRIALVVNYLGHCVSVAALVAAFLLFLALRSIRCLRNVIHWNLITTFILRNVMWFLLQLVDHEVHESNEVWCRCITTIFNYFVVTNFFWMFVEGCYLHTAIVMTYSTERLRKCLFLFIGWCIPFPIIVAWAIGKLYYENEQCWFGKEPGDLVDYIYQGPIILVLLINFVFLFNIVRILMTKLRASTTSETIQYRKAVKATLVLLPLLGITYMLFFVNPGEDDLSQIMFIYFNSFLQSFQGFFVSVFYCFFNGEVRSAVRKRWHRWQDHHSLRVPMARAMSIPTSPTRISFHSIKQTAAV
In words: cAMP agonism at human CRF2 α receptor in TeloHEAC cells (Example 7). It is filed as cell-based. Particulars: cAMP HTRF, TeloHEAC cells stably expressing human CRF2 α. In outline:
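Percent activation was referenced to 1000 nM UCN2 (100%), and EC50 values taken as concentrations giving half of maximal response. The read-out was a homogeneous time-resolved fluorescence cAMP kit, fluorescence ratio 665/620 nm. Thawed cells (2000/well) saw compound for 30 min at RT in buffer with 2 mM IBMX and 0%/0.1% HSA.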

The next test deals with T2, CRF1R receptor (Homo sapiens, UniProt P34998).
T2 construct: host or cells: CHO-K1 clone 2
T2 sequence (P34998 24-415): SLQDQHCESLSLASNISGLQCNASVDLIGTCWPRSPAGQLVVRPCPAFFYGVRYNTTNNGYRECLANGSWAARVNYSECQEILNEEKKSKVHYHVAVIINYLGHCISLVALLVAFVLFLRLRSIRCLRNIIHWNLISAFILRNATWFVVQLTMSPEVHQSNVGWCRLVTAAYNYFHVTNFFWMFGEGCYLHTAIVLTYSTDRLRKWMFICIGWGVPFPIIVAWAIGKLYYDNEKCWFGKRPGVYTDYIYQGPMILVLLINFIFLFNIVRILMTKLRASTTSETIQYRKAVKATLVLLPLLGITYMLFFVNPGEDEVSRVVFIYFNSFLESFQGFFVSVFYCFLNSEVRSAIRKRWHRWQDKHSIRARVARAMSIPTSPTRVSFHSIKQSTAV
In words: cAMP activity at anti-target CRF1R, CHO-K1 cell line clone 2 (Example 19.10). Conditions: CRF1R CHO-K1 clone 2; for EC50: 0% HSA, read-out: EC50 [nM] 0% HSA; for Emax: 100% = Sauvagine at 100 nM. The test is classed as cell-based. The method, then:
The CRF1R-overexpression CHO-K1 cell line clone 2 was purchased from PerkinElmer.
Cells were grown in a 10 cm dish at 37° C./5% CO2 in medium (F12 (Hams)/10% FBS/400 μg/ml G418) to near confluence. At that stage, cells were harvested, resuspended to 10 million/mL in culture medium without G418 and with 10% DMSO. 1 mL vial aliquots were slowly frozen to -80° C. in isopropanol and then transferred in liquid nitrogen for storage. These vials were used to run the experiment following the procedure reported 10 in the previous paragraph, except for the compound used in the control well to define the 100% activation (Sauvagine at 100 nM)

[1] abbreviates: 0% HSA, read-out: EC50 [nM], 0% HSA.
Setting [2] is: 0.1% HSA, read-out: EC50 [nM], 0.1% HSA.

Where two headings read alike, the source gives them in different places. Starred links: 1 amine or outer side, 2 acyl side, 3 side chain; linkers in the order of their positions; H or OH if unused. Non-standard residues stand in square brackets, D forms with d. Residues, ends and D or L forms follow the SMILES beside them. Groups on a side chain read outwards from the residue. *: point of attachment. C18 diacid = O=C(O)CCCCCCCCCCCCCCCCC(=O)*; γGlu = O=C(O)[C@H](CCC(=O)[*:2])N[*:1]; Palmitoyl = CCCCCCCCCCCCCCCC(=O)*; AEEA = NCCOCCOCC(=O)O; Aib = CC(C)(N)C(=O)O Where only a bound is given, the exact number is not on record here.

As a reminder, the EC50 is the concentration needed to bring the measured effect to its halfway point. The Emax is the maximal effect, on the per cent scale that the assay sets. With `CCCCCCCCCCCCCCCC(=O)N[C@@H](CCC(=O)NCCCC[C@H](NC(=O)[C@H](CC(C)C)NC(=O)[C@H](CCCCN)NC(=O)[C@@H](NC(=O)[C@@H]1CCCN1C(=O)[C@H](NC(=O)[C@H](CC(=O)O)NC(=O)[C@H](CC(C)C)NC(=O)[C@H](CO)NC(=O)[C@H](CC(C)C)NC(=O)[C@@H](NC(=O)[C@@H](N)[C@@H](C)CC)C(C)C)C(C)C)[C@@H](C)O)C(=O)N[C@@H](CCCCN)C(=O)N[C@@H](CCCCN)C(=O)N[C@@H](CC(C)C)C(=O)N[C@@H](CC(C)C)C(=O)N[C@@H](CCCCN)C(=O)N[C@@H](CCC(N)=O)C(=O)N[C@@H](CCC(=O)O)C(=O)N[C@@H](CCCNC(=N)N)C(=O)N[C@@H](CCCCN)C(=O)N[C@@H](CCCNC(=N)N)C(=O)N[C@@H](CCCCN)C(=O)N[C@@H](CCC(=O)O)C(=O)N[C@@H](CCCNC(=N)N)C(=O)N[C@@H](CCC(=O)O)C(=O)N[C@@H](CCC(N)=O)C(=O)N[C@@H](C)C(=O)N[C@@H](CCC(=O)O)C(=O)N[C@@H](CCCCN)C(=O)N[C@@H](C)C(=O)N[C@@H](C)C(=O)N[C@@H](CCCNC(=N)N)C(=O)N[C@H](C(=O)N[C@@H](CC(C)C)C(=O)N[C@@H](CCC(=O)O)C(=O)N[C@@H](CCCNC(=N)N)C(=O)N[C@H](C(N)=O)C(C)C)[C@@H](C)CC)C(=O)O` [compound 30] (H-IVLSLD[dV]PTKLK([γGlu-Palmitoyl])KKLLKQERKRKEREQAEKAARILERV-NH2; N-terminus assumed), the EC50 on human CRF2α receptor (setting [1]) is 0.16 nM; on CRF1R receptor, greater than 100 nM. On CRF1R receptor, this molecule gave an Emax of 14.5%.
In the case of `CC[C@H](C)[C@H](N)C(=O)N[C@H](C(=O)N[C@@H](CC(C)C)C(=O)N[C@@H](CO)C(=O)N[C@@H](CC(C)C)C(=O)N[C@@H](CC(=O)O)C(=O)N[C@H](C(=O)N1CCC[C@H]1C(=O)N[C@H](C(=O)N[C@@H](CCCCN)C(=O)N[C@@H](CC(C)C)C(=O)N[C@@H](CCCCNC(=O)COCCOCCNC(=O)COCCOCCNC(=O)CC[C@H](NC(=O)CCCCCCCCCCCCCCCCC(=O)O)C(=O)O)C(=O)N[C@@H](CCC(N)=O)C(=O)N[C@H](C(=O)N[C@@H](CC(C)C)C(=O)N[C@@H](CC(C)C)C(=O)N[C@@H](CCCCN)C(=O)N[C@@H](CCC(N)=O)C(=O)N[C@@H](CCC(=O)O)C(=O)N[C@@H](CCCNC(=N)N)C(=O)N[C@@H](CCC(N)=O)C(=O)N[C@@H](CCCCN)C(=O)N[C@@H](CCCCN)C(=O)N[C@@H](CCC(N)=O)C(=O)N[C@@H](CCCNC(=N)N)C(=O)N[C@@H](CCC(=O)O)C(=O)N[C@@H](CCCCN)C(=O)N[C@@H](C)C(=O)N[C@@H](CCCCN)C(=O)N[C@H](C(=O)N[C@@H](CC(N)=O)C(=O)NC(C)(C)C(=O)N[C@@H](CCC(N)=O)C(=O)N[C@H](C(=O)N[C@@H](CC(C)C)C(=O)N[C@@H](C)C(=O)N[C@@H](CCC(N)=O)C(=O)N[C@H](C(N)=O)C(C)C)[C@@H](C)CC)[C@@H](C)O)[C@@H](C)CC)[C@@H](C)CC)C(C)C)C(C)C` [compound 88] (H-IVLSLDVPIKLK([AEEA-AEEA-γGlu-C18 diacid])QILLKQERQKKQREKAKTN[Aib]QILAQV-NH2; N-terminus assumed), the half-maximal effective concentration (EC50) on human CRF2α receptor (setting [1]) was 0.68 nM; at human CRF2α receptor (setting [2]), 25.7 nM; at CRF1R receptor, greater than 100 nM. Also, the maximum response (Emax) at CRF1R receptor turned out to be 2.3%.
`CC[C@H](C)[C@H](N)C(=O)N[C@H](C(=O)N[C@@H](CC(C)C)C(=O)N[C@@H](CO)C(=O)N[C@@H](CC(C)C)C(=O)N[C@@H](CC(=O)O)C(=O)N[C@H](C(=O)N1CCC[C@H]1C(=O)N[C@H](C(=O)N[C@@H](CCCCN)C(=O)N[C@@H](CC(C)C)C(=O)N[C@@H](CCCCNC(=O)COCCOCCNC(=O)COCCOCCNC(=O)CC[C@H](NC(=O)CCCCCCCCCCCCCCCCC(=O)O)C(=O)O)C(=O)N[C@@H](CCC(N)=O)C(=O)N[C@H](C(=O)N[C@@H](CC(C)C)C(=O)N[C@@H](CC(C)C)C(=O)N[C@@H](CCCCN)C(=O)N[C@@H](CCC(N)=O)C(=O)N[C@@H](CCC(=O)O)C(=O)N[C@@H](CCCNC(=N)N)C(=O)N[C@@H](CCC(N)=O)C(=O)N[C@@H](CCCCN)C(=O)N[C@@H](CCCCN)C(=O)N[C@@H](CCC(N)=O)C(=O)N[C@@H](CCCNC(=N)N)C(=O)N[C@@H](CCC(=O)O)C(=O)N[C@@H](CCC(N)=O)C(=O)N[C@@H](C)C(=O)N[C@@H](CCCCN)C(=O)N[C@H](C(=O)N[C@@H](CC(N)=O)C(=O)NC(C)(C)C(=O)N[C@@H](CCC(N)=O)C(=O)N[C@H](C(=O)N[C@@H](CC(C)C)C(=O)N[C@@H](C)C(=O)N[C@@H](CCC(N)=O)C(=O)N[C@H](C(N)=O)C(C)C)[C@@H](C)CC)[C@@H](C)O)[C@@H](C)CC)[C@@H](C)CC)C(C)C)C(C)C` [compound 89] (H-IVLSLDVPIKLK([AEEA-AEEA-γGlu-C18 diacid])QILLKQERQKKQREQAKTN[Aib]QILAQV-NH2): the values for the EC50 on human CRF2α receptor (setting [1]), on human CRF2α receptor (setting [2]) and at CRF1R receptor were 0.3 nM, 15.6 nM and greater than 100 nM, respectively. The molecule further returned an Emax at CRF1R receptor of 3.7%.
In the case of `CC[C@H](C)[C@H](N)C(=O)N[C@H](C(=O)N[C@@H](CC(C)C)C(=O)N[C@@H](CO)C(=O)N[C@@H](CC(C)C)C(=O)N[C@@H](CC(=O)O)C(=O)N[C@H](C(=O)N1CCC[C@H]1C(=O)N[C@H](C(=O)N[C@@H](CCCCN)C(=O)N[C@@H](CC(C)C)C(=O)N[C@@H](CCCCNC(=O)COCCOCCNC(=O)COCCOCCNC(=O)CC[C@H](NC(=O)CCCCCCCCCCCCCCCCC(=O)O)C(=O)O)C(=O)N[C@@H](CCC(N)=O)C(=O)N[C@H](C(=O)N[C@@H](CC(C)C)C(=O)N[C@@H](CC(C)C)C(=O)N[C@@H](CCCCN)C(=O)N[C@@H](CCC(N)=O)C(=O)N[C@@H](CCC(=O)O)C(=O)N[C@@H](CCCNC(=N)N)C(=O)N[C@@H](CCC(N)=O)C(=O)N[C@@H](CCCCN)C(=O)N[C@@H](CCCCN)C(=O)N[C@@H](CCC(=O)O)C(=O)N[C@@H](CCCNC(=N)N)C(=O)N[C@@H](CCC(=O)O)C(=O)N[C@@H](CCC(N)=O)C(=O)N[C@@H](C)C(=O)N[C@@H](CCC(=O)O)C(=O)N[C@H](C(=O)N[C@@H](CC(N)=O)C(=O)N[C@@H](CCCCN)C(=O)N[C@@H](CCC(N)=O)C(=O)N[C@H](C(=O)N[C@@H](CC(C)C)C(=O)N[C@@H](C)C(=O)N[C@@H](CCC(N)=O)C(=O)N[C@H](C(N)=O)C(C)C)[C@@H](C)CC)[C@@H](C)O)[C@@H](C)CC)[C@@H](C)CC)C(C)C)C(C)C` [compound 96] (H-IVLSLDVPIKLK([AEEA-AEEA-γGlu-C18 diacid])QILLKQERQKKEREQAETNKQILAQV-NH2; N-terminus assumed), the EC50 at human CRF2α receptor (setting [1]) was determined as 0.38 nM. For the same molecule, at CRF1R receptor, the EC50 is greater than 100 nM and the maximal response (Emax) was found to be 2.3%.
For the molecule `CC[C@H](C)[C@H](N)C(=O)N[C@H](C(=O)N[C@@H](CC(C)C)C(=O)N[C@@H](CO)C(=O)N[C@@H](CC(C)C)C(=O)N[C@@H](CC(=O)O)C(=O)N[C@@H](C(=O)N1CCC[C@H]1C(=O)N[C@H](C(=O)N[C@@H](CCCCN)C(=O)N[C@@H](CC(C)C)C(=O)N[C@@H](CCCCNC(=O)COCCOCCNC(=O)COCCOCCNC(=O)CC[C@H](NC(=O)CCCCCCCCCCCCCCCCC(=O)O)C(=O)O)C(=O)N[C@@H](CCC(N)=O)C(=O)N[C@H](C(=O)N[C@@H](CC(C)C)C(=O)N[C@@H](CC(C)C)C(=O)N[C@@H](CCCCN)C(=O)N[C@@H](CCC(N)=O)C(=O)N[C@@H](CCC(=O)O)C(=O)N[C@@H](CCCNC(=N)N)C(=O)N[C@@H](CCC(N)=O)C(=O)N[C@@H](CCCCN)C(=O)N[C@@H](CCCCN)C(=O)N[C@@H](CCC(N)=O)C(=O)N[C@@H](CCCNC(=N)N)C(=O)N[C@@H](CCC(=O)O)C(=O)N[C@@H](CCC(N)=O)C(=O)N[C@@H](C)C(=O)N[C@@H](CCC(=O)O)C(=O)N[C@H](C(=O)N[C@@H](CC(N)=O)C(=O)N[C@@H](CCCCN)C(=O)N[C@@H](CCC(N)=O)C(=O)N[C@H](C(=O)N[C@@H](CC(C)C)C(=O)N[C@@H](C)C(=O)N[C@@H](CCC(N)=O)C(=O)N[C@H](C(N)=O)C(C)C)[C@@H](C)CC)[C@@H](C)O)[C@@H](C)CC)[C@@H](C)CC)C(C)C)C(C)C` [compound 102] (H-IVLSLD[dV]PIKLK([AEEA-AEEA-γGlu-C18 diacid])QILLKQERQKKQREQAETNKQILAQV-NH2; N-terminus assumed), the EC50 was 0.07 nM at human CRF2α receptor (setting [1]) and greater than 100 nM on CRF1R receptor. The same molecule displayed an Emax at CRF1R receptor of 9%.
